pIC50, pKd, pKi: −log10 of the molar value. Where a SMILES comes first, the peptide text is derived from it. Bridges are numbered along the chain shown (N, C = ends). [ ]: non-standard residue; d: D form. Trp(1-CH2COOH) = N[C@@H](Cc1cn(CC(=O)O)c2ccccc12)C(=O)O; Hyp = O=C(O)[C@@H]1C[C@@H](O)CN1; NMeNle = CCCC[C@H](NC)C(=O)O; NMeA = CN[C@@H](C)C(=O)O; Dab = NCC[C@H](N)C(=O)O; Dap = NC[C@H](N)C(=O)O; Sar = CNCC(=O)O

Series [1] in a line: Binding affinity to human recombinant Hsp90 expressed in Escherichia coli BL21 (DE3) cells assessed as dissociation constant.
The nature of series [2]: Binding affinity to Hsp90 (unknown origin) expressed in Escherichia coli BL21 (DE3) cells assessed as inhibition constant by NMR STD analysis. On the set-up: species or system Homo sapiens.
Series [3] has as its target Stimulator of interferon genes protein (Homo sapiens, UniProt Q86WV6). Description: Binding affinity to N-terminal His-tagged wild type human STING CTD ([…]) expressed in Escherichia coli BL21 (DE3) cells assessed as dissociation constant by NMR analysis.
Series [4] in a line: Oral bioavailability in mouse at 2 mg/kg. Type of series: ADME, organism-based. Conditions: in vivo.
Series [5] in a line: Oral bioavailability in rat at 2 mg/kg by LC-MS/MS analysis. Type of series: ADME, organism-based. Conditions: in vivo.
Series [6] can be described thus: Oral bioavailability in Beagle dog at 2 mg/kg. The series is classed as ADME, organism-based, Canis lupus familiaris. The settings on record: in vivo.
A short description of series [7]: Oral bioavailability in monkey at 5 mg/kg. The series is classed as ADME, organism-based, Macaca mulatta. Conditions: rhesus monkey, in vivo.
A short description of series [8]: Binding affinity to Hsp90 (unknown origin) assessed as dissociation constant. On the set-up: species or system Homo sapiens.
The target in series [9] is T1, Programmed cell death protein 1/Programmed cell death 1 ligand 1 (Homo sapiens, UniProt Q15116+Q9NZQ7). Description: Inhibition of PD-1/PD-L1 (unknown origin) protein-protein interaction incubated for 1 hr by HTRF assay. Type of series: protein-complex assay. (Time-resolved FRET reads energy transfer from a long-lived donor to a nearby acceptor.)
T1 sequence (Q15116 whole entry): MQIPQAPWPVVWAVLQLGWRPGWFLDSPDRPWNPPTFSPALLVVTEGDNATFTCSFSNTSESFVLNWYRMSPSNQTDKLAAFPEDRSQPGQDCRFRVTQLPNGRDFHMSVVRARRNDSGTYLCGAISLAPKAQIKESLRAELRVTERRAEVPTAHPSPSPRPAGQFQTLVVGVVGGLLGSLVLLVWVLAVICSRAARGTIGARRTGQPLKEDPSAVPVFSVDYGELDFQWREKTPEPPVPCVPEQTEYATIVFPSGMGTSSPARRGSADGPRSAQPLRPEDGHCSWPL
T1 sequence (Q9NZQ7 whole entry): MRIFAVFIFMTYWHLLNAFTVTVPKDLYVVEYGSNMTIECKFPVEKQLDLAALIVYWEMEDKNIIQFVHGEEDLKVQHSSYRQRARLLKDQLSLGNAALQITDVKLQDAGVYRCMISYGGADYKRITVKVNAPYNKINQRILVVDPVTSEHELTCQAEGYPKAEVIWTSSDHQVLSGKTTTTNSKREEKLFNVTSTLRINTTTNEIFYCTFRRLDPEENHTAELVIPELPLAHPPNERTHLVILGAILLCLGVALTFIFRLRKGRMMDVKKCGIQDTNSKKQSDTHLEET
Series [10] concerns the target T1, Programmed cell death protein 1/Programmed cell death 1 ligand 1. Description: Inhibition of PD-1/PD-L1 (unknown origin) interaction expressed in human HEK293T cells by HTRF analysis. Type of series: cell-based.
Series [11] has the same target. Description: Inhibition of PD-1/PD-L1 (unknown origin) protein-protein interaction expressed in HEK293 cells by HTRF method. Type of series: cell-based.
The nature of series [12]: Binding affinity to human Hsp90 expressed in Escherichia coli BL21 (DE3) cells assessed as inhibition constant.

Stimulator of interferon genes protein, sequence (Q86WV6 whole entry): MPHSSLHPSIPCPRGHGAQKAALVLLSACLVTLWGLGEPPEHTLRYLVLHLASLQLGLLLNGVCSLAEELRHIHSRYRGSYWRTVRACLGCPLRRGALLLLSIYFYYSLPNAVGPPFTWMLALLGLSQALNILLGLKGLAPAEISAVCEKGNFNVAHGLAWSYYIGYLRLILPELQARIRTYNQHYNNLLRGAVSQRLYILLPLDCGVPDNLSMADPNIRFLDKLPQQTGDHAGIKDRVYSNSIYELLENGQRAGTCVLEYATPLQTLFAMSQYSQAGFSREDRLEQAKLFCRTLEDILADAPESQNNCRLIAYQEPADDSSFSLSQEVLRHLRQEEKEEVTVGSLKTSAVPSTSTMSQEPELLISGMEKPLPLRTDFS

For `O=C(O)c1ccc(-c2ccc(F)cc2)cc1`, in series [1], the pKd was 3.52.
As to `O=C(NS(=O)(=O)c1ccc(NCCSc2ccccc2)c([N+](=O)[O-])c1)c1ccc(-c2ccc(F)cc2)cc1`, the pKi in series [2] is 7.44.
For `COc1cc2cc(C(=O)CCC(=O)O)sc2cc1OC`, in series [3], the pKd was 4.74.
As for `Oc1cccc2c1CCCC2`, the pKd in series [1] is 2.37.
Consider `O=C(O)c1ccc(-c2ccc(F)cc2)cc1/C=C/c1cccc(-c2ccccc2)c1`, for which the pKi in series [2] is 5.85.
Consider `COc1cccc(Nc2ncnn3ccc(CN4CC[C@@H](N)[C@@H](O)C4)c23)c1`, for which the bioavailability in series [4] turned out to be 29.7%; in series [5], 29.7%; in [6], 29.7%; in series [7], 8%.
Regarding `Cc1cccc(C2c3[nH]c4ccccc4c3CC3C(=O)N(c4ccccc4C(=O)O)C(=O)N32)c1` (stereo not given), in [8], the negative-log Kd (pKd) is 3.75.
For the molecule `Oc1ccc(-c2ccccc2)cc1`, the pKd in series [1] is 2.22.
As to `CCCC[C@H]1C(=O)N(C)[C@@H](CCCC)C(=O)N[C@@H](CCCNC(=N)N)C(=O)N[C@H](C(=O)NCC(N)=O)CSCC(=O)N[C@@H](Cc2ccccc2)C(=O)N(C)[C@@H](C)C(=O)N[C@@H](CC(N)=O)C(=O)N2CCC[C@H]2C(=O)N[C@@H](Cc2c[nH]cn2)C(=O)N[C@@H](CC(C)C)C(=O)N(C)CC(=O)N[C@@H](Cc2c[nH]c3ccccc23)C(=O)N[C@@H](CO)C(=O)N[C@@H](Cc2c[nH]c3ccccc23)C(=O)N1C` ({CH2CO}-F[NMeA]NPHL[Sar]WSW[NMeNle][NMeNle]RCG-NH2; thioether N-14), the pIC50 in series [9] is 8.05; in series [10] it was 7.22.
Consider `CCCC[C@H]1C(=O)N(C)[C@@H](CCCC)C(=O)N[C@@H](CC(C)C)C(=O)N[C@H](C(=O)NCC(N)=O)CSCC(=O)N[C@@H](Cc2ccc(O)cc2)C(=O)N(C)[C@@H](C)C(=O)N[C@@H](CC(N)=O)C(=O)N2CCC[C@H]2C(=O)N[C@@H](CN)C(=O)N[C@@H](CC(C)C)C(=O)N2C[C@H](O)C[C@H]2C(=O)N[C@@H](Cc2c[nH]c3ccccc23)C(=O)N[C@@H](CCN)C(=O)N[C@@H](Cc2cn(CC(=O)O)c3ccccc23)C(=O)N1C` ({CH2CO}-Y[NMeA]NP[Dap]L[Hyp]W[Dab][Trp(1-CH2COOH)][NMeNle][NMeNle]LCG-NH2; thioether N-14), for which, in series [11], the pIC50 is 9.57.
As for `CN(C)CC[C@H](CSc1ccccc1)Nc1ccc(S(=O)(=O)NC(=O)c2ccc(N3CCN(Cc4ccccc4-c4ccc(Cl)cc4)CC3)cc2)cc1[N+](=O)[O-]` [ABT 737], in series [12], the pKi was above 9.00.

As usually defined, the pKd is the Kd on a negative log10 scale, so that one unit is a factor of ten. Usually pKi stands for the negative decadic logarithm of the Ki, by convention in mol/L. As a reminder, the bioavailability is the share of a dose that reaches the circulation, judged against a reference dose that is usually intravenous. Usually pIC50 stands for −log10 of the IC50, conventionally taken in molar units.

These data come from ChEMBL document CHEMBL5537202, “Perspectives on Nuclear Magnetic Resonance Spectroscopy in Drug Discovery Research” (J Med Chem, 2024).
